Data as given in patent US12285012B2, “Compositions comprising pyridine carboxylate herbicides with acetolactate synthase (ALS) inhibitor herbicides” (Corteva Agriscience LLC, priority 2018, dated 2025).

Columns and labels:
spring wheat (TRZAS) = assay type: in vivo, Triticum aestivum; details: Bispyribac 90 g/ha
Summary of the method: (§1)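 Injury was rated visually after 20-22 d on a 0 (none) to 100% (complete kill) scale relative to solvent-sprayed controls, with sub-irrigation to avoid wash-off. Rates were given in g ae/ha or g ai/ha depending on component.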

[1] = system: spring rape (BRSNN, Brassica napus); assay: Greenhouse postemergence herbicidal effect; assay type: in vivo; details: Bispyribac 90 g/ha
Summary of the method: as §1

[2] = system: Canadian thistle (CIRAR, Cirsium arvense); assay: Greenhouse postemergence herbicidal effect; assay type: in vivo; details: Bispyribac 90 g/ha
Summary of the method: as §1

[3] = system: common sunflower (HELAN, Helianthus annuus); assay: Greenhouse postemergence herbicidal effect; assay type: in vivo; details: Bispyribac 90 g/ha
Description: (§2) Seeds of the desired test plant species were planted in a 90:10% v/v (volume/volume) mixture of PRO-MIX® BX (Premier Tech Horticulture, Quakertown, PA, USA) and PROFILE® GREENS GRADE™ (Profile Products LLC, Buffalo Grove, IL, USA) planting mixture, which typically has a pH of 5.2 to 6.2 and an organic matter content of at least 50 percent, in plastic pots with a surface area of 103.2 square centimeters (cm^2). In some aspects, to ensure good germination and healthy plants, a fungicide treatment and/or other chemical or physical treatment was applied. The plants were grown for 7-36 days (d) in a greenhouse with an approximate 14-hour (h) photo-period which was maintained at about 23° C. during the day and 22° C. during the night. Nutrients and water were added on a regular basis and supplemental lighting was provided with overhead metal halide 1000-Watt lamps as necessary. The plants were employed for testing when they reached the second or third true leaf stage.
(§3) Emulsifiable concentrates of each of each pyridine carboxylate herbicide (Compound A or Compound B) were prepared at 100 grams acid equivalent per liter (g ae/L). The emulsifiable concentrates also included a safener, cloquintocet-mexyl, at 120 grams active ingredient per liter (g ai/L), unless otherwise noted below. An aliquot of each emulsifiable concentrate was placed in a 25 mL glass vial and diluted with an aqueous mixture of 1.25% (v/v) ACTIROB® B esterified rapeseed oil (Bayer Crop Science, Research Triangle Park, NC, USA) or MSO® Concentrate with LECI-TECH® methylated soybean oil (Loveland Products, Loveland, CO, USA) to obtain concentrated stock solutions at the highest application rate for each herbicide, based upon a 12 milliliter (mL) application volume at a rate of 187 liters per hectare (L/ha). The concentrated stock solutions were further diluted with an aqueous mixture of 1.25% v/v ACTIROB® B or MSO® Concentrate with LECI-TECH® to obtain stock solutions at reduced application rates for each herbicide. Spray solutions of the herbicide combinations (Compound A or Compound B plus ALS herbicide) were prepared by adding weighed amounts or aliquots of the ALS herbicides to the stock solutions of Compound A or Compound B to form 12-mL spray solutions in two- or three-way combinations.
(§4) The spray solutions were applied to the plant material with an overhead Mandel track sprayer equipped with 8002E nozzles calibrated to deliver 187 L/ha over an application area of 0.503 square meters (m^2) at a spray height of 18 inches (43 centimeters (cm)) above the average plant canopy. Control plants were sprayed in the same manner with the solvent blank. All pyridine carboxylate herbicide (component a) application rates are given as “g ae/ha” and all ALS inhibitor (component b) application rates are given as “g ai/ha.”
(§5) The treated plants and control plants were placed in a greenhouse as described above and watered by sub-irrigation to prevent wash-off of the test compounds. After 20-22 d, the condition of the test plants as compared with that of the control plants was determined visually and scored on a scale of 0 to 100 percent where 0 corresponds to no injury and 100 corresponds to complete kill.

[4] = system: poinsettia (EPHHL, Euphorbia heterophylla); assay: Greenhouse postemergence herbicidal effect; assay type: in vivo; details: Bispyribac 90 g/ha
Description: as §2, §3, §4, §5

[5] = system: nutsedge (CYPES, Cyperus esculentus); assay: Greenhouse postemergence herbicidal effect; assay type: in vivo
Description: as §2, §3, §4, §5

[6] = system: ivyleaf morningglory (IPOHE, Ipomoea hederacea); assay: Greenhouse postemergence herbicidal effect; assay type: in vivo; details: Bispyribac 90 g/ha
Description: as §2, §3, §4, §5

[7] = system: grain sorghum (SORVU, Sorghum vulgare); assay: Greenhouse postemergence herbicidal effect; assay type: in vivo; details: Bispyribac 90 g/ha
Description: as §2, §3, §4, §5

[8] = system: small-flower flatsedge (CYPDI, Cyperus difformis); assay: Greenhouse postemergence herbicidal effect; assay type: in vivo; details: Penoxsulam 20 g/ha
Description: as §2, §3, §4, §5

[9] = system: broadleaf signalgrass (BRAPP, Brachiaria platyphylla); assay: Greenhouse postemergence herbicidal effect; assay type: in vivo; details: Penoxsulam 20 g/ha
Description: as §2, §3, §4, §5

[10] = system: barnyard grass (ECHCG, Echinochloa crus-galli); assay: Greenhouse postemergence herbicidal effect; assay type: in vivo; details: Penoxsulam 20 g/ha
Description: as §2, §3, §4, §5

[11] = system: giant foxtail (SETFA, Setaria faberi); assay: Greenhouse postemergence herbicidal effect; assay type: in vivo; details: 20 g/ha
Description: as §2, §3, §4, §5

[12] = system: wild oat (AVEFA, Avena fatua); assay: Greenhouse postemergence herbicidal effect; assay type: in vivo; details: 20 g/ha
Description: as §2, §3, §4, §5

[13] = system: annual ryegrass (LOLMG=Lolium multiflorum subsp. gaudini); assay: Greenhouse postemergence herbicidal effect; assay type: in vivo; details: 20 g/ha
Description: as §2, §3, §4, §5

[14] = system: large crabgrass (DIGSA, Digitaria sanguinalis); assay: Greenhouse postemergence herbicidal effect; assay type: in vivo; details: 20 g/ha
Description: as §2, §3, §4, §5

COc1cc(OC)nc(Oc2cccc(Oc3nc(OC)cc(OC)n3)c2C(=O)O)n1 [Bispyribac, bispyribac] was tested, and the “% visual injury” value (spring wheat (TRZAS)) was 18%, the “% visual injury” value [1] was 88% and the “% visual injury” value [2] was 90%. For the same molecule, the “% visual injury” value [3] was 97%, the “% visual injury” value [4] was 95% and the “% visual injury” value ([5]; Bispyribac 90 g/ha) was 20%. For the same molecule, the “% visual injury” value [6] was 70% and the “% visual injury” value [7] was 73%.
For COc1cnc(OC)n2nc(NS(=O)(=O)c3c(OCC(F)F)cccc3C(F)(F)F)nc12 [Penoxsulam, penoxsulam], the “% visual injury Obs” value [8] was 17%, the “% visual injury Obs” value [9] was 32% and the “% visual injury Obs” value [10] was 60%.
COc1cc(OC)nc(NC(=O)NS(=O)(=O)c2ncccc2C(=O)N(C)C)n1 [Nicosulfuron, nicosulfuron] was tested, and the “% visual injury, Obs” value [11] was 100%, the “% visual injury, Obs” value [12] was 96% and the “% visual injury, Obs” value ([5]; 20 g/ha) was 40%. For the same molecule, the “% visual injury, Obs” value [13] was 96% and the “% visual injury, Obs” value [14] was 65%.
